# Measured values reported in publication PMC4663080 (Journal of enzyme inhibition and medicinal chemistry, 2010).
# Assays:
# AChE [1] = conditions: rat synaptosomal membrane as enzyme source; cited from earlier work
# [2] = biological target: T1, Electrophorus electricus AChE (Electrophorus electricus, UniProt O42275); test: Steady-state enzyme kinetics of AChE in the presence of nantenine; assay type: biochemical
# AChE [3] = biological target: AChE (Electrophorus electricus, UniProt O42275); test: TLC anticholinesterase bioautographic assay; assay type: biochemical; conditions: compared with galanthamine (1)
# AChE (Electrophorus electricus, UniProt O42275), sequence (O42275 24-633): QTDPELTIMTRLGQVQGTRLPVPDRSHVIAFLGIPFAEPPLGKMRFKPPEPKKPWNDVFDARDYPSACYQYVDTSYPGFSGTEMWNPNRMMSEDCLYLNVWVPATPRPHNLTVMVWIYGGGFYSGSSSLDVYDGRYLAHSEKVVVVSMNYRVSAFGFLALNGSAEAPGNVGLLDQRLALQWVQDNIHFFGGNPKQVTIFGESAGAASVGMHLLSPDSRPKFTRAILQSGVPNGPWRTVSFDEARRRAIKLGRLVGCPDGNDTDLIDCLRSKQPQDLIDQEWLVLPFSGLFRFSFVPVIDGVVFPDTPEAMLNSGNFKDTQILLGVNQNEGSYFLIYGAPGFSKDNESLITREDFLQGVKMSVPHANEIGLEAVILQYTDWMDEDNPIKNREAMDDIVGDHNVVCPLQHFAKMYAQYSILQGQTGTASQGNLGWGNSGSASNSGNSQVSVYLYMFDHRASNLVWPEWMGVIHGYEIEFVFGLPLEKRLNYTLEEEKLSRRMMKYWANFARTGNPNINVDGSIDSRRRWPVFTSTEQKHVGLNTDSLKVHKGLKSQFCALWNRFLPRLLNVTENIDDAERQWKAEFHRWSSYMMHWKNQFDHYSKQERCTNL
# [4] = biological target: T1, Electrophorus electricus AChE; assay type: biochemical
# T1 sequence (O42275 24-633): as above
Compound,activity in AChE assay (AChE [1]),Ki [2] [µM],mode of inhibition ([2]; Lineweaver-Burk plot),activity in TLC anticholinesterase bioautographic assay (AChE [3]),fold less active than nantenine (AChE inhibition) [4]
"COc1cc2c3c(c1OC)-c1cc4c(cc1CC3N(C)CC2)OCO4 (stereo not drawn) [Nantenine (8), nantenine]",inactive,18.7,mixed inhibition,showed activity,
"COc1cc2c(c(-c3ccc4c(c3)OCO4)c1OC)C(C)N(C)CC2 (stereo not drawn) [Compound 15b, 8-(benzo[d][1,3]dioxol-5-yl)-6,7-dimethoxy-1,2-dimethyl-1,2,3,4-tetrahydroisoquinoline]",,,,,approximately two-fold
"COc1cc2c(c(-c3ccc4c(c3)OCO4)c1OC)CN(C)CC2 [Compound 15a, 8-(benzo[d][1,3]dioxol-5-yl)-6,7-dimethoxy-2-methyl-1,2,3,4-tetrahydroisoquinoline]",,,,,approximately two-fold
